Target: GLYAT (glyphosate-N-acetyltransferase), parent, SEQ ID NO:2 (Bacillus licheniformis, UniProt Q65LG7, A28V/D131E/E119K/E63D/E65Q/E67Q/E68K/E83D/E96Q/G37R/I132T/I135V/I15L/I2L/K101R/K144R/K58Q/L105M/L97I/R18K/T89S/V114A/Y130F/Y45F)
Experiment: Substrate saturation kinetic analysis of purified GLYAT
Conditions: pH 7.0
Experimental: Cells were lysed with BPER (Pierce) containing 1 mM dithiothreitol, 0.2 mg/ml lysozyme, 2 mg/ml protease inhibitor cocktail (Sigma bacterial cell cocktail, P8465) and endonuclease. Lysate supernatants were passed through a column of NHS-activated Agarose (Thermo, #26197) derivatized with coenzyme A. Columns were washed with 25 mM Hepes, pH 7, containing progressively higher concentrations of KCl, then eluted with 25 mM Hepes, 100 mM KCl, 10% ethylene glycol and 1 mM acetyl CoA. Purity as evaluated by polyacrylamide gel electrophoresis was deemed consistently high enough to be assumed to be 100%. Protein concentration was determined with the Bradford assay using a large-scale lot of produced GLYAT protein as standard.
Kinetic parameters for various substrates were obtained using a range of seven substrate concentrations plus a blank containing none of the varied substrate. The non-varied substrate was present at a saturating concentration. Six-microliter aliquots of 50-fold concentrated stock solutions of the varied substrate were placed in a 96-well assay plate (Greiner BioOne UV-Star). Reactions were started with the addition of 294 ul of 25 mM Hepes, pH 7.0, 100 mM KCL, 10% ethylene glycol, the non-varied substrate and 10 to 200 nM enzyme. Absorbance was monitored for one minute with a Spectramax 384 Plus plate reader (Molecular Devices). If the amino acid present at position 30 (29 if alanine is absent at position 2) was cysteine, absorbance was monitored at 235 nm, which directly detects cleavage of the sulfoester bond of acetyl CoA. If the amino acid present at position 30 (29 if alanine is absent at position 2) was isoleucine, 0.5 mM 5,5′-dithiobis-(2-nitrobenzoic acid), which reacts with the coenzyme A thiol generated in the enzyme catalyzed reaction, was included in the reaction mix and absorbance was monitored at 412 nm. Initial rates were processed by the Softmax software to obtain kinetic parameters, using the double-reciprocal transformation.

Sequence of GLYAT (glyphosate-N-acetyltransferase), parent, SEQ ID NO:2 (Q65LG7 entry or part of it with the stated changes): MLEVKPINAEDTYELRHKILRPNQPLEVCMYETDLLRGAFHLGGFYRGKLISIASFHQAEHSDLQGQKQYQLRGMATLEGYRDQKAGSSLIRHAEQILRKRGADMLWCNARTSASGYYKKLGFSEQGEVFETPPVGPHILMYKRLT

N[C@@H](CC(=O)O)C(=O)O [aspartate]
Asp as % of glyph (kcat/KM asp / kcat/KM glyph): 0.574%

Source: patent US11236354B2, “Glyphosate-n-acetyltransferase (GLYAT) sequences and methods of use” (PIONEER HI-BRED INTERNATIONAL, INC., priority 2013, dated 2022)
